# Source: patent US8329681B2, “Methods and compositions for the efficient delivery of therapeutic agents to cells and animals” (University of Massachusetts, priority 2005, dated 2012)
# Test: Tissue distribution of Cy3-labeled siRNA by fluorescence microscopy
# Type: in vivo, BALB/c mice
# Details: 24 h after injection
# Description: Freshly excised tissues were frozen in liquid nitrogen and mounted for crytostat sectioning. Sections of 5 μm were fixed with in 100% acetone at 4° C. for 10 min, air-dried and mounted in Vectashild with DAPI (Vector Laboratories, Inc. Burlingame, Calif.). Slides were viewed and recorded under Leica confocal microscope.
# Male BALB/c mice, 6-8 weeks of age and weighting 20-22 g, were purchased form the Jackson Laboratory (Bar Harbor, Me.). Synthetic siRNA were delivered in vivo using following method. For each mice 25 μg of siRNA in 100 μl of HEPES Buffered Saline (20 mM HEPES, 150 mM NaCl, pH 7.4) was transferred into a sterile tube. In a separate sterile tube 125 μg of liposome was mixed with 200 μl HEPES Buffered Saline. The siRNA solution was transferred to the tube containing liposome solution and then incubated at room temperature for 20 minutes. 200 μl of the complexes was injected via the tail vein, using a 1-ml syringe and 27-gauge needle. The injection was repeated 4 and 8 h later. Control mice were injected with an equal volume of liposome. At 24 h after the last injection, the mice were sacrificed and tissues were harvested for further analysis. […]
# The tissue distribution patterns of siRNA delivered in BALB/c mice using DOTAP-Chol were assessed by fluorescence microscopy.
structure (smiles),measurement,value
"CCCCCCCCC=CCCCCCCCC(=O)OC(COC(=O)CCC(=O)OC1CCC2(C)C(=CCC3C2CCC2(C)C(C(C)CCCC(C)C)CCC32)C1)C[N+](C)(C)C.[I-] (stereo not shown) [Lipid 8, N,N,N-Trimethyl-N-[2-(9(Z)-octadecanoyloxy),3-succinyloxy(4-cholesteryloxy)-propyl]ammonium iodide]",tissues with the highest fluorescent intensity of delivered Cy3-labeled siRNA,"the spleen, the lung and the liver"
